Reference: ChEMBL document CHEMBL1201862, “PubChem BioAssay data set” (2004)
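Dose response: 5 concentrations. Exposure: 48 h. Format: 96-well plates. Endpoint: linear interpolation; highest concentration if not reached. Abbreviation: GI50, concentration required for 50% inhibition of growth.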 Activity calls are given as the source filed them. Cut-off read from the data, not from the text of the source: active = GI50 up to about 1.1 µM and inactive = higher.

Legend:
Experiment in all cases: NCI-60 cell line screen, 48 h
NCI-H226 = test system: NCI-H226
OVCAR-3 = test system: OVCAR-3
UACC-62 = test system: UACC-62
CAKI-1 = test system: CAKI-1
NCI/ADR-RES = test system: NCI/ADR-RES
SF-539 = test system: SF-539
HT-29 = test system: HT-29
PC-3 = test system: PC-3
SK-OV-3 = test system: SK-OV-3
IGROV-1 = test system: IGROV-1
SK-MEL-28 = test system: SK-MEL-28
SNB-75 = test system: SNB-75
SF-268 = test system: SF-268
A549 = test system: A549
Malme-3M = test system: Malme-3M
RPMI-8226 = test system: RPMI-8226
M19-MEL = test system: M19-MEL
OVCAR-4 = test system: OVCAR-4
OVCAR-5 = test system: OVCAR-5
COLO 205 = test system: COLO 205
DU-145 = test system: DU-145
HOP-18 = test system: HOP-18
LXFL 529 = test system: LXFL 529
HOP-62 = test system: HOP-62
DLD-1 = test system: DLD-1
SW-620 = test system: SW-620
EKVX = test system: EKVX
NCI-H23 = test system: NCI-H23
HOP-92 = test system: HOP-92
SK-MEL-5 = test system: SK-MEL-5
786-0 = test system: 786-0
MOLT-4 = test system: MOLT-4
SR = test system: SR
UACC-257 = test system: UACC-257
SN12C = test system: SN12C
KM12 = test system: KM12
TK-10 = test system: TK-10
BT-549 = test system: BT-549
MDA-MB-231 = test system: MDA-MB-231
HL-60 = test system: HL-60
LOX IMVI = test system: LOX IMVI
MDA-MB-435 = test system: MDA-MB-435
A498 = test system: A498
MCF7 = test system: MCF7
M14 = test system: M14
K562 = test system: K562
DMS-273 = test system: DMS-273
HCT-15 = test system: HCT-15
RXF 393 = test system: RXF 393
NCI-H460 = test system: NCI-H460
MDA-N = test system: MDA-N
NCI-H522 = test system: NCI-H522
SNB-19 = test system: SNB-19
SK-MEL-2 = test system: SK-MEL-2
T47D = test system: T47D
U-251 = test system: U-251
Hs-578T = test system: Hs-578T
HCT-116 = test system: HCT-116
SF-295 = test system: SF-295
OVCAR-8 = test system: OVCAR-8
SNB-78 = test system: SNB-78
CCRF-CEM = test system: CCRF-CEM
UO-31 = test system: UO-31
ACHN = test system: ACHN
HCC 2998 = test system: HCC 2998
DMS-114 = test system: DMS-114
XF498 = test system: XF498
KM-20L2 = test system: KM-20L2

`O=C1C(Cl)=C(c2ccc([N+](=O)[O-])cc2)C(=O)c2c(O)cccc21` was tested, and the GI50 (NCI-H226) was 1.73 µM (inactive), the GI50 (OVCAR-3) was 1.3 µM (inactive) and the GI50 (UACC-62) was 0.508 µM (active). The GI50 (CAKI-1) was 1.29 µM (inactive), the GI50 (NCI/ADR-RES) was 2.39 µM (inactive) and the GI50 (SF-539) was 0.341 µM (active). For the same compound, the GI50 (HT-29) was 2.72 µM (inactive), the GI50 (PC-3) was 2.12 µM (inactive) and the GI50 (SK-OV-3) was 2.87 µM (inactive). For the same compound, the GI50 (IGROV-1) was 2.39 µM (inactive), the GI50 (SK-MEL-28) was 1.26 µM (inactive) and the GI50 (SNB-75) was 1.83 µM (inactive). For the same compound, the GI50 (SF-268) was 843 nM (active), the GI50 (A549) was 3.28 µM (inactive) and the GI50 (Malme-3M) was 2.09 µM (inactive). The GI50 (RPMI-8226) was 0.379 µM (active), the GI50 (M19-MEL) was 1.57 µM (inactive) and the GI50 (OVCAR-4) was 1.93 µM (inactive). The GI50 (OVCAR-5) was 2.24 µM (inactive), the GI50 (COLO 205) was 1.82 µM (inactive) and the GI50 (DU-145) was 6.04 µM (inactive). The GI50 (HOP-18) was 0.573 µM (active), the GI50 (LXFL 529) was 0.273 µM (active) and the GI50 (HOP-62) was 4.17 µM (inactive). The GI50 (DLD-1) was 1.16 µM (inactive), the GI50 (SW-620) was 1.96 µM (inactive) and the GI50 (EKVX) was 3.35 µM (inactive). The GI50 (NCI-H23) was 1.67 µM (inactive), the GI50 (HOP-92) was 1.44 µM (inactive) and the GI50 (SK-MEL-5) was 1.87 µM (inactive). The GI50 (786-0) was 3.15 µM (inactive), the GI50 (MOLT-4) was 2.56 µM (inactive) and the GI50 (SR) was 134 nM (active). The GI50 (UACC-257) was 1.9 µM (inactive), the GI50 (SN12C) was 2.96 µM (inactive) and the GI50 (KM12) was 1.11 µM (active). For the same compound, the GI50 (TK-10) was 3.14 µM (inactive), the GI50 (BT-549) was 1.03 µM (active) and the GI50 (MDA-MB-231) was 1.03 µM (active). The GI50 (HL-60) was 3.48 µM (inactive), the GI50 (LOX IMVI) was 1.39 µM (inactive) and the GI50 (MDA-MB-435) was 2.05 µM (inactive). The GI50 (A498) was 3.08 µM (inactive), the GI50 (MCF7) was 4.88 µM (inactive) and the GI50 (M14) was 0.979 µM (active). The GI50 (K562) was 1.11 µM (active), the GI50 (DMS-273) was 4.06 µM (inactive) and the GI50 (HCT-15) was 614 nM. For the same compound, the GI50 (RXF 393) was 0.678 µM (active), the GI50 (NCI-H460) was 2.3 µM (inactive) and the GI50 (MDA-N) was 2.49 µM (inactive). The GI50 (NCI-H522) was 292 nM (active), the GI50 (SNB-19) was 1.45 µM (inactive) and the GI50 (SK-MEL-2) was 713 nM (active). For the same compound, the GI50 (T47D) was 2.37 µM (inactive), the GI50 (U-251) was 0.8 µM (active) and the GI50 (Hs-578T) was 1.19 µM (inactive). The GI50 (HCT-116) was 1.06 µM (active), the GI50 (SF-295) was 2.7 µM (inactive) and the GI50 (OVCAR-8) was 1.39 µM (inactive). For the same compound, the GI50 (SNB-78) was 1.83 µM (inactive), the GI50 (CCRF-CEM) was 1.55 µM (inactive) and the GI50 (UO-31) was 1.92 µM (inactive). For the same compound, the GI50 (ACHN) was 1.11 µM (active), the GI50 (HCC 2998) was 2.26 µM (inactive) and the GI50 (DMS-114) was 0.202 µM (active). For the same compound, the GI50 (XF498) was 0.395 µM (active).

For `O=C(O)CCc1coc2ccc(O)cc12`, the GI50 (OVCAR-3) was > 100 µM (inactive), the GI50 (UACC-62) was > 100 µM (inactive) and the GI50 (CAKI-1) was > 100 µM (inactive). The GI50 (SF-539) was > 100 µM (inactive), the GI50 (HT-29) was > 100 µM (inactive) and the GI50 (SK-OV-3) was > 100 µM (inactive). For the same compound, the GI50 (IGROV-1) was > 100 µM (inactive), the GI50 (SK-MEL-28) was > 100 µM (inactive) and the GI50 (SNB-75) was > 100 µM (inactive). The GI50 (A549) was > 100 µM (inactive), the GI50 (RPMI-8226) was > 100 µM (inactive) and the GI50 (M19-MEL) was > 100 µM (inactive). For the same compound, the GI50 (OVCAR-4) was > 100 µM (inactive), the GI50 (COLO 205) was > 100 µM (inactive) and the GI50 (HOP-18) was > 100 µM (inactive). For the same compound, the GI50 (LXFL 529) was > 100 µM (inactive), the GI50 (HOP-62) was > 100 µM (inactive) and the GI50 (DLD-1) was > 100 µM (inactive). The GI50 (SW-620) was > 100 µM (inactive), the GI50 (EKVX) was > 100 µM (inactive) and the GI50 (NCI-H23) was > 100 µM (inactive). For the same compound, the GI50 (HOP-92) was 75.7 µM (inactive), the GI50 (SK-MEL-5) was > 100 µM (inactive) and the GI50 (786-0) was > 100 µM (inactive). For the same compound, the GI50 (MOLT-4) was > 100 µM (inactive), the GI50 (UACC-257) was > 100 µM (inactive) and the GI50 (SN12C) was > 100 µM (inactive). The GI50 (TK-10) was > 100 µM (inactive), the GI50 (HL-60) was > 100 µM (inactive) and the GI50 (LOX IMVI) was > 100 µM (inactive). For the same compound, the GI50 (A498) was > 100 µM (inactive), the GI50 (M14) was > 100 µM (inactive) and the GI50 (K562) was > 100 µM (inactive). The GI50 (DMS-273) was > 100 µM (inactive), the GI50 (HCT-15) was over 100000 nM and the GI50 (RXF 393) was > 100 µM (inactive). The GI50 (NCI-H460) was > 100 µM (inactive), the GI50 (SNB-19) was > 100 µM (inactive) and the GI50 (KM-20L2) was > 100 µM (inactive). The GI50 (U-251) was > 100 µM (inactive), the GI50 (HCT-116) was > 100 µM (inactive) and the GI50 (SF-295) was > 100 µM (inactive). The GI50 (OVCAR-8) was > 100 µM (inactive), the GI50 (SNB-78) was > 100 µM (inactive) and the GI50 (CCRF-CEM) was > 100 µM (inactive). For the same compound, the GI50 (ACHN) was > 100 µM (inactive), the GI50 (HCC 2998) was > 100 µM (inactive) and the GI50 (DMS-114) was > 100 µM (inactive). For the same compound, the GI50 (XF498) was > 100 µM (inactive).
